This is an account of results in patent US20050276815A1, “Antiviral activity from medicinal mushrooms” (priority 2004, published 2005).

Test [1] concerns Cowpox. In kind it is cell-based.
In test [2] the test system is Vaccinia. The test is classed as cell-based.

As for `Nc1ccn(C[C@@H](CO)OCP(=O)(O)O)c(=O)n1` [CDV], the PR CDV EC50 was determined as 10.3 µg/mL in test [1] and 4.9 µg/mL in test [2].
